Reference: patent publication US6420563B1, “Small molecule modulators of G protein-coupled receptor six” (Arena Pharmaceuticals, Inc., priority 1998, dated 2002)
Read-outs that look alike come from different tables or passages of the source.

How the values were obtained:
[1] = target: T1, GPR6 (Homo sapiens, UniProt P46095); test: membrane-based cyclic AMP confirmation assay (Example 4C); type: biochemical; conditions: mean +/- standard deviation (number of assays in brackets); read-out: IC50 Values Cyclic AMP Assay Example 4C
T1 construct: expressed in transfected cells; 293 cells are used elsewhere
T1 sequence (P46095 whole entry): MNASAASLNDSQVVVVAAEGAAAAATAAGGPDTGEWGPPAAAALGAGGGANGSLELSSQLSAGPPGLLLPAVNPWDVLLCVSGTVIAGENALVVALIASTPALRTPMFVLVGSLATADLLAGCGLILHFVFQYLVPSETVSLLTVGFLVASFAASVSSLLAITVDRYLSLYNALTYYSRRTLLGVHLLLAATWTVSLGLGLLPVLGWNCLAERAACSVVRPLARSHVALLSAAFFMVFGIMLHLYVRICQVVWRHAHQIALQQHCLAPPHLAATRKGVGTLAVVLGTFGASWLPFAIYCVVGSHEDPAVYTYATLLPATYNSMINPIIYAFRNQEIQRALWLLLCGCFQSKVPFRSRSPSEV
Source text: Using an independent assay approach to provide confirmation of a directly identified candidate compound as set forth above, it is preferred that a confirmation assay then be utilized. In this case, the preferred confirmation assay is membrane-based cyclic AMP (cAMP) assay.
A modified Flash Plate™ Adenylyl Cyclase kit (New England Nuclear; Cat. No. SMP004A) was utilized for confirmation of candidate compounds directly identified as inverse agonists and agonists to endogenous, constitutively activated orphan GPCRs in accordance with the following protocol.
Transfected stable cells were harvested approximately three days after transfection. Membranes were prepared by homogenization of suspended cells in buffer containing 20 mM HEPES, pH 7.4 and 10 mM MgCl2. Homogenization was performed on ice using a Brinkman Polytron™ for approximately 10 seconds. The resulting homogenate was centrifuged at 20,000 rpm for 20 minutes at 4° C. The resulting pellet was then resuspended in buffer containing 20 mM HEPES, pH 7.4 and 0.1 mM EDTA, homogenized for 10 seconds, followed by centrifugation at 20,000 rpm for 20 minutes at 4° C. The resulting pellet can be stored at −80° C. until utilized. On the day of direct identification screening, the membrane pellet is slowly thawed at room temperature, resuspended in buffer containing 20 mM HEPES, pH 7.4, 100 mM NaCl and 10 mM MgCL2, to yield a final protein concentration of 0.60 mg/ml (the resuspended membranes are placed on ice until use).
Candidate compounds identified as per above (if frozen, thawed at room temperature) were added to plate wells (3 μl/well; 12 μM final assay concentration), together with 50 μl Membrane Protein (30 μg/well) and 50 μl of Assay Buffer. This admixture was then incubated for 30 minutes at room temperature, with gentle shaking.
Following the incubation, 100 μl of Detection Buffer was added to each well, followed by incubation for 2-20 hours. Plates were subsequently aspirated and then counted in a Wallac MicroBeta™ plate reader using “Prot. #31” (as per manufacturer instructions).

[2] = Food/water intake and body weight in 24-hour food deprived rats, oral gavage (PO); type: in vivo, rat
Description: Based upon the in vivo data developed, oral bioavailability of compound ARE112 was determined. The compound was administered by oral gavage at doses ranging from 6.75 to 54 mg/kg. The data presented in FIGS. 9A and 9B support the conclusion that oral administration of ARE112 also decreases food intake in both food-deprived and non-food deprived rats. […] In FIG. 9A, rats were deprived 24 hours prior to oral administration of the compound. In this assay, the vehicle-treated rats at 2.5 hours consumed […] of food while injected rats; particularly rats administered with 27 and 54 mg/kg of ARE 112, ate about 6 and 4 grams, respectively. […] (See, FIG. 9A).
Several other GPR6 inverse agonists were also assessed under 24-hour food deprived conditions, with PO administration. The analogs listed below were tested at 200 μmol/kg, which is equivalent to 54 mg/kg. In addition, ARE114 was also assessed at […]. Data are summarized below in Table C:
In a second assay, tested under the same conditions, several other analogs were assessed at 100 μmol/kg.
In FIG. 10, rats were deprived 24 hours prior to oral administration of the compound. In this assay, analogs ARE130, ARE135, ARE136, and ARE140, were administered at a dose of 100 μmol/kg. Three analogs, particularly, ARE130, ARE136 and ARE140 evidenced a slow intake of food (e.g., about 1 to 1.5 grams every two hours) over an eight hour period post-administration; while the vehicle rat consumed about 2 to 2.5 grams food every two hours. Similar to the vehicle rat, analog ARE135, an opened ring structure, evidenced that over an eight hour period post-administration the rats increasingly consumed about 2.5 grams every two hours. (See, FIG. 10A). Furthermore, the body weight of the vehicle rat and administered rats with analog ARE135 gained about 19.5 grams. On the other hand, the closed ring structures evidenced a decrease in body weight gain as follows: ARE112-6 grams, ARE130-9 grams, ARE136-11 grams and ARE140-14 grams. See, FIG. 10C.

[3] = target: T2, GPR6:Gsα-Fusion Protein (Homo sapiens, UniProt P46095); test: [35S]GTPγS membrane binding assay (Example 4A); type: biochemical
T2 construct: expressed in transfected cells
T2 sequence (P46095 with tags, fused parts or gaps): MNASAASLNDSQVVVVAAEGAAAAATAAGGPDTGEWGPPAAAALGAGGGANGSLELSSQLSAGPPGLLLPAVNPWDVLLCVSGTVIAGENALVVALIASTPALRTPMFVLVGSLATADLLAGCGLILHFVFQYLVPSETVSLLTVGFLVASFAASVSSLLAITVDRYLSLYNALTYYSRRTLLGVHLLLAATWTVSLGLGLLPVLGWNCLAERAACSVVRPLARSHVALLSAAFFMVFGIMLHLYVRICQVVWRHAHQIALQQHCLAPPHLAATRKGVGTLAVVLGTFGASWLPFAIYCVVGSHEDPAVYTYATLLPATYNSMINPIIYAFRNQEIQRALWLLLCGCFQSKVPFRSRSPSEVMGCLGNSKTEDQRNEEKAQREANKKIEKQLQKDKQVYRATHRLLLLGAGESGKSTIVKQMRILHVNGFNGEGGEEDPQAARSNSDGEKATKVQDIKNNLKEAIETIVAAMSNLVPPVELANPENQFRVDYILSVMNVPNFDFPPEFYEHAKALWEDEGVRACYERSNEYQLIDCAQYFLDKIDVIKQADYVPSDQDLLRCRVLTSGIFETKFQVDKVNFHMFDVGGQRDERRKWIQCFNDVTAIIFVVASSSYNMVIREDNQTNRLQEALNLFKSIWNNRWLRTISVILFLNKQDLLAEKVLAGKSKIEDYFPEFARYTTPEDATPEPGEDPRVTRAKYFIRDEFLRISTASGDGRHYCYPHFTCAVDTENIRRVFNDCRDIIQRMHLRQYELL
Description: The assay plates were then centrifuged at 400 rpm for 15 minutes at room temperature and then subsequently aspirated and counted in a scintillation counter.
Membranes expressing the GPCR6:Gsα-Fusion Protein (see Example 2) and for use in the direct identification of candidate compounds as inverse agonists, agonists or partial agonists were prepared as follows:
All materials were kept on ice throughout the procedure. Firstly, the media was aspirated from a confluent monolayer of cells, followed by rinse with 10 ml cold PBS, followed by aspiration. Thereafter, 5 ml of membrane Scrape Buffer was added to scrape cells; this was followed by transfer of cellular extract into 50 ml centrifuge tubes (centrifuged at 20,000 rpm for 17 minutes at 4° C.). Thereafter, the supernatant was aspirated and the pellet was resuspended in 30 ml Membrane Wash Buffer followed by centrifuge at 20,000 rpm for 17 minutes at 4° C. The supernatant was then aspirated and the pellet resuspended in Binding Buffer. This was then homogenized using a Brinkman polytron™ homogenizer (15-20 second bursts until the all material was in suspension). This is referred to herein as “Membrane Protein”.
Candidate compounds (Tripos, Inc., St. Louis, Mo.) were received in 96-well plates (these can be frozen at −80° C.). Membrane Protein (or membranes with expression vector excluding the GPR6:Gsα-Fusion Protein, as control), were homogenized briefly until in suspension. Protein concentration was then determined using the Bradford Protein Assay set forth above. […] Thereafter, 100 ul GDP Buffer was added to each well of a Wallac Scintistrip™ (Wallac). A 5 ul pin-tool was then used to transfer 5 ul of a candidate compound into such well (i.e., 5 ul in total assay volume of 200 ul is a 1:40 ratio such that the final screening concentration of the candidate compound is 10 uM). Again, to avoid contamination, after each transfer step the pin tool was rinsed in three reservoirs comprising water (1×), ethanol (1×) and water (2×)—excess liquid should be shaken from the tool after each rinse and dried with paper towels and kimwipes™. Thereafter, 50 ul of Membrane Protein was added to each well (a control well comprising membranes without the GPCR Fusion Protein is also utilized), and pre-incubated for 5-10 minutes at room temperature (the plates were covered with foil in that the candidate compounds obtained from Tripos are light sensitive). Thereafter, 50 ul of [^35S]GTPγS (0.6 nM) in Binding Buffer was added to each well, followed by incubation on a shaker for 60 minutes at room temperature (again, in this example, plates were covered with foil). The assay was then stopped by spinning of the plates at 4000 RPM for 15 minutes at 22° C. The plates were then aspirated with an 8 channel manifold and sealed with plastic plate covers. The plates were then read on a Wallac 1450 using setting “Prot. #37” (as per manufacturer instructions).
The initial or “primary” screen designed to directly identify, e.g., human GPR6 receptor inverse agonists, consisted of the membrane-based GTPγS binding assay of Example 4A utilizing membranes prepared from 293 stable cells. Candidate compounds directly identified as inhibiting receptor-mediated increases in GTPγS as set forth below were considered active “leads”.
It is preferred that following such direct identification, IC50 (inverse agonist) or EC50 (agonist) values be determined; those having ordinary skill in the art are credited with utilizing IC50 and EC50 assay protocols of choice. FIG. 4 provides a representative IC50 curve for compound ARE112 using the assay protocol of Example 4A.

[4] = 100 μmol/kg PO, second assay, Table D, vehicle 19.25

IC50 [1]: 240 nM
IC50 ([3]; mean +/- SD (number of assays), read-out: IC50 Values (Table E, GTP Assay of Example 4A)): 220 nM
IC50 ([3]; mean +/- standard deviation (number of assays in brackets), read-out: IC50 Values GTP Assay Example 4A): 220 nM
Compound: O=C(N=C1SSC2=NCCN21)c1cccc(F)c1 [ARE130, N-(5,6-dihydro-3H-imidazo[2,1-c]-1,2,4-dithiazol-3-ylidene)-3-fluorobenzamide]
Cumulative Food Intake (g) (8 hr post administration) ([2]; 100 μmol/kg PO, second assay, Table D, vehicle 14.0): 9.1 g
Body Weight Gain (g) (6 hr post administration) [2, 4]: 9.5 g
Cumulative Water Intake (g) (6 hr post administration) [2, 4]: 9.5 g
water drunk less than the vehicle animal (FIG. 10B) ([2]; 100 μmol/kg oral): about 10 grams
body weight gain (FIG. 10C) ([2]; 100 μmol/kg oral, vehicle about 19.5 grams): 9 grams
